Experimental data as given in patent US12122789B2, “Forms of pyrido[1,2-a]pyrimidin-4-one derivatives, its formulation and its process of making” (Hoffmann-La Roche Inc., priority 2018, dated 2024).
Each block holds one molecule with its values, some of them ahead of it.

What was measured:
[1] = relative thermodynamic stability of crystal forms (equilibration of suspensions); assay type: physicochemical; conditions: for thermodynamic stability of the polymorph: in particular between 5° C. to 65° C.
Description: Alternatively, Form A can be obtained upon equilibration of solid 7-(4,7-diazaspiro[2.5]octan-7-yl)-2-(2,8-dimethylimidazo[1,2-b]pyridazin-6-yl)pyrido[1,2-a]pyrimidin-4-one suspended in organic solvents or a mixture thereof for prolonged time. In particular 7-(4,7-diazaspiro[2.5]octan-7-yl)-2-(2,8-dimethylimidazo[1,2-b]pyridazin-6-yl)pyrido[1,2-a]pyrimidin-4-one can be suspended in ethanol, methyl ethyl ketone, ethyl acetate, or dioxane at ambient temperature or at elevated temperature (e.g. 22 to 65° C.) for 2-3 weeks affording 7-(4,7-diazaspiro[2.5]octan-7-yl)-2-(2,8-dimethylimidazo[1,2-b]pyridazin-6-yl)pyrido[1,2-a]pyrimidin-4-one as Form A.
Form D can be obtained by equilibration of solid 7-(4,7-diazaspiro[2.5]octan-7-yl)-2-(2,8-dimethylimidazo[1,2-b]pyridazin-6-yl)pyrido[1,2-a]pyrimidin-4-one suspended in water or water containing organic solvents for prolonged time. 7-(4,7-diazaspiro[2.5]octan-7-yl)-2-(2,8-dimethylimidazo[1,2-b]pyridazin-6-yl)pyrido[1,2-a]pyrimidin-4-one can be suspended in water or mixtures of organic solvent and water, in particular in ethanol/water mixtures. In particular, the mixture can be left in equilibration for 2-3 weeks in water or in ethanol/water 20/80 v/v at 65° C. to afford 7-(4,7-diazaspiro[2.5]octan-7-yl)-2-(2,8-dimethylimidazo[1,2-b]pyridazin-6-yl)pyrido[1,2-a]pyrimidin-4-one as Form D. In particular, the mixture can be left in equilibration for 2-3 weeks in water or in ethanol/water 20/80 v/v to 50/50 v/v to 80/20 v/v at approx. 22° C. to afford 7-(4,7-diazaspiro[2.5]octan-7-yl)-2-(2,8-dimethylimidazo[1,2-b]pyridazin-6-yl)pyrido[1,2-a]pyrimidin-4-one as Form D.

[2] = chemical stability of the solid form; assay type: physicochemical; conditions: compared to Form D
[3] = hygroscopicity (water uptake according to European Pharmacopoeia); assay type: physicochemical
[4] = test system: exon 7 of SMN1 and/or SMN2; experiment: inclusion of exon 7 into mRNA transcribed from the SMN1 and/or SMN2 gene; conditions: increasing expression of SMN protein in a human subject

stability of the hydrated form ([1]; with sufficiently high water activity): stable hydrated form
Structure (SMILES): Cc1cn2nc(-c3cc(=O)n4cc(N5CCNC6(CC6)C5)ccc4n3)cc(C)c2n1 [Form D, 7-(4,7-diazaspiro[2.5]octan-7-yl)-2-(2,8-dimethylimidazo[1,2-b]pyridazin-6-yl)pyrido[1,2-a]pyrimidin-4-one]

thermodynamic stability of the polymorph [1]: metastable polymorph
Structure (SMILES): Cc1cn2nc(-c3cc(=O)n4cc(N5CCNC6(CC6)C5)ccc4n3)cc(C)c2n1 [Form G, 7-(4,7-diazaspiro[2.5]octan-7-yl)-2-(2,8-dimethylimidazo[1,2-b]pyridazin-6-yl)pyrido[1,2-a]pyrimidin-4-one]

Continued, molecule first:

Structure (SMILES): Cc1cn2nc(-c3cc(=O)n4cc(N5CCNC6(CC6)C5)ccc4n3)cc(C)c2n1 [Form B, 7-(4,7-diazaspiro[2.5]octan-7-yl)-2-(2,8-dimethylimidazo[1,2-b]pyridazin-6-yl)pyrido[1,2-a]pyrimidin-4-one]
thermodynamic stability of the polymorph [1]: metastable polymorph

Structure (SMILES): Cc1cn2nc(-c3cc(=O)n4cc(N5CCNC6(CC6)C5)ccc4n3)cc(C)c2n1 [Form A, 7-(4,7-diazaspiro[2.5]octan-7-yl)-2-(2,8-dimethylimidazo[1,2-b]pyridazin-6-yl)pyrido[1,2-a]pyrimidin-4-one]
thermodynamic stability of the polymorph [1]: thermodynamic stable polymorph
chemical stability [2]: improved chemical stability
hygroscopicity [3]: non-hygroscopic to slightly hygroscopic
water uptake [3]: < 2%

Structure (SMILES): Cc1cn2nc(-c3cc(=O)n4cc(N5CCNC6(CC6)C5)ccc4n3)cc(C)c2n1 [compound of formula (I), 7-(4,7-diazaspiro[2.5]octan-7-yl)-2-(2,8-dimethylimidazo[1,2-b]pyridazin-6-yl)pyrido[1,2-a]pyrimidin-4-one]
inclusion of exon 7 of SMN1 and/or SMN2 into mRNA [4]: enhance inclusion of exon 7
